Data on 11 compounds can be found in patent US20240374535A1, “COMPOSITIONS AND METHODS FOR TREATING BIOFILM DISORDERS AND INFECTIONS” (AHV International B.V., priority 2021, published 2024).

pIC50: −log10 of the molar value. Where two headings read alike, the source gives them in different places.

In test [1] the test system is Staphylococcus epidermis ATCC 35984. The test can be described thus: MIC assay (planktonic growth inhibition, OD600). It is filed as cell-based, S. epidermidis. Conditions: for pIC50: read-out: S. epidermidis MIC50; for IC90: read-out: S. epidermidis MIC90. The protocol:
(§1) The exact weighed amount was noted and the volume of solvent to reach a 80 mM dilution calculated. Half of the volume was added first, by adding Tween 80. In a second step, the other half of the volume DMSO was added and the closed tube inverted 5-10 times and then vortexed very thoroughly for at least 30 seconds. If after this procedure unsolved material was still visible, the tube was placed in a shaker at 37° C. at 150 rpm for at least 30 minutes. […] For the MBEC assay (method 1.3) the solution needs to be diluted to a final concentration of 2 mM in 0.9% saline solution and then further diluted to 1 mM, 0.5 mM, 0.25 mM and 0.125 mM in saline. Those dilutions were added as treatment to the 96 well plates with the grown biofilm (see method 3).
(§2) Frozen aliquots of Staphylococcus epidermis ATCC 35984 and Pseudomonas aeruginosa ATCC 27853 were used to inoculate a tryptic soy agar (TSA) plate and incubated overnight at 37° C. After incubation 3-5 well-isolated colonies with the same morphology were selected from the TSA plate and resuspended in 2 mL 0.9% saline solution with 3-6 glass beads and vortexed. The optical density at 600 nm (OD600) of the bacterial suspension was measured with a spectrophotometer (Evolution™ 201/220 UV-Visible Spectrophotometer, Thermo Fisher Scientific) and diluted to an OD600 of 0.0008, which resembles 10^6 CFU/mL.
(§3) The MIC assay was performed in a flat-bottom 96-microtiter plate. 50 μL of MHB-II was added into columns 2-11, and 100 μL to column 12 for sterility control. 100 μL of the 8 mM test compound solution (method 1) was added to column 1. A two-fold dilution series of the solution in MHB-II was achieved by resuspending 50 μL of the 8 mM solution from column 1 to column 2. This step was repeated until column 10. The respective concentration of Tween 80 and DMSO in column 1 was 2.5%, which is two-fold diluted throughout the plate. 50 μL of the bacterial suspension was added to column 1-11. The microtiter plates were sealed with adhesive polyethylene film for sealing microplates (Diversified Biotech) and incubated for 24 h at 37° C. After incubation the OD was measured at 600 nm with the Varioskan (Thermo Fisher Scientific). […] This assay was repeated three times in three independent experiments.

The subject of test [2] is udder cleft wound. The test can be described thus: In vivo udder cleft dermatitis test: wound assessment after spray treatment. Set-up: species or system cow. The settings on record: for Conclusion (effect on udder cleft wound): over 60 days, all cows of the group. The protocol:
An example of a biofilm-related disorder is Udder Cleft Dermatitis (UCD), which relates to a chronic wound. In this Example, di-alkyl thiosulfonates, dialkyl thiosulfinates and di-alkyl disulfides were tested for their effect on cows affected by UCD.
Experiments were performed to examine the effect of various sprays containing water (control), a test compound, or a reference compound (CTC spray, which contains chlorotetracycline hydrochloride, and was obtained from Dechra veterinary products).
0.35 mL of the spray was sprayed on an udder cleft wound per treatment. Treatments took place once a day at t=0, at t=3 days and t=6 days. In Table 6, the assessment qualifications that are used in Table 7, are explained.

Test [3] has as its system Pseudomonas aeruginosa ATCC 27853 biofilm. Kind of test: MBEC assay (biofilm eradication, CFU log reduction). It is filed as cell-based, P. aeruginosa. Conditions: for minimal effective concentration: Pseudomonas aeruginosa, read-out: P. aeruginosa MBEC mM with log reduction ≥1. The protocol: as §1
(§4) Frozen aliquots of Staphylococcus epidermis ATCC 35984 and Pseudomonas aeruginosa ATCC 27853 were used to inoculate 20 mL of Tryptic Soy Broth (TSB) in a 100 mL Erlenmeyer flask at 37° C. and 150 rpm and incubated overnight (Infors). The OD600 of the overnight culture was measured with a spectrophotometer (Evolution™ 201/220 UV-Visible Spectrophotometer, Thermo Fisher Scientific) and diluted to an OD600 of 0.2, which resembles 10^8 CFU/mL. The cell suspension of OD600=0.2 was seeded into a U-bottom-shaped 96 well plates by pipetting 100 μL per well in column 1-11, column 12 was filled with 100 μL medium as sterility control. The 96 well plates were sealed with adhesive polyethylene film for sealing microplates and incubated for 48 h at 37° C. at static conditions. After the biofilm growth phase, 100 μL of treatment solutions (method 1) were added to the vials resulting in treatment concentrations of 1 mM, 0.5 mM, 0.25 mM and 0.125 mM and with the respective concentration of Tween 80 and DMSO each at 0.63%, 0.32%, 0.16% and 0.08%. The same concentration was applied to four different wells of the same bacterial strain, resulting in four replicates for each concentration and strain. The treatment was incubated for 20 h at 37° C. at static conditions. After the treatment the supernatant was carefully removed and the well with the biofilm washed carefully for one time with 200 μL 0.9% saline solution. 200 μL saline solution was added and the biofilm was resuspended thoroughly. When fully homogenized then 20 μL was used for the first dilution in 180 μL 0.9% saline solution, which was prepared in a second plate. This dilution was continued until dilution step 10E−5 and 100 μL of the 10E−4 and 10E−5 dilution plated on a TSA plate. The TSA plates were incubated at 37° C. for 24 h. The colonies on the plates were enumerated, the colony forming units per mL of the dispensed biofilm and averages thereof and the log reduction in comparison with the untreated sample from the same wells plate calculated. Reduction of colony forming units goes hand in hand with the thickness of the biofilm and thus with the number bacteria that are present in the biofilm. Therefore, a significant reduction of colony forming units in the biofilm was defined at the value of log reduction ≥1 or more. This assay was repeated two times in two independent experiments)

Test [4] relates to Pseudomonas aeruginosa ATCC 27853. Kind of test: MIC assay (planktonic growth inhibition, OD600). Conditions: for pIC50 / IC90: Pseudomonas aeruginosa; for pIC50: read-out: P. aeruginosa MIC50; for IC90: read-out: P. aeruginosa MIC90. It is filed as cell-based, P. aeruginosa. The protocol:
as §1, §2, §3

The test system of test [5] is Staphylococcus epidermis ATCC 35984 biofilm. Kind of test: MBEC assay (biofilm eradication, CFU log reduction). Format: cell-based, S. epidermidis. The settings on record: for minimal effective concentration: read-out: S. epidermidis MBEC mM with log reduction ≥1. As to the method:
as §1, §4

[6] abbreviates: minimal concentration reducing final OD600 by 50%, 24 h at 37° C.
Where [7] appears, read: minimal concentration reducing final OD600 by 90%, 24 h at 37° C.
The mark [8] stands for this setting: ATCC27853, 48 h grown biofilm, 20 h treatment, CFU log reduction vs untreated.
[9] abbreviates: ATCC27853, minimal concentration reducing final OD600 by 50%, 24 h at 37° C.
[10] abbreviates: ATCC27853, minimal concentration reducing final OD600 by 90%, 24 h at 37° C.
The mark [11] stands for this setting: 48 h grown biofilm, 20 h treatment, CFU log reduction vs untreated.

`c1ccc(CSSCc2ccccc2)cc1` [Di-benzyl disulfide]: the pIC50 in test [1] (24 h) was less than 2.40; in test [4] (ATCC27853, 24 h), less than 2.40. Besides, the IC90 in test [1] (24 h) was more than 4 mM; in test [4] (ATCC27853, 24 h), more than 4 mM. Also, the “Conclusion (effect on udder cleft wound)” value in test [2] is reported as “No effect”. The minimal effective concentration is more than 1 mM in test [3] (ATCC27853, 20 h) and more than 1 mM in test [5] (20 h).
As to `CCCCSSCCCC` [Di-n-butyl disulfide], the pIC50 in test [1] (setting [6]) and in test [4] (setting [9]) was less than 2.40 throughout. The IC90 in test [1] (setting [7]) and in test [4] (setting [10]) was more than 4 mM in each case. The “Conclusion (effect on udder cleft wound)” value in test [2] is reported as “No effect”. For the same compound, the minimal effective concentration in test [3] (setting [8]) and in test [5] (setting [11]) was more than 1 mM each time.
Take `c1ccc(SSc2ccccc2)cc1` [Di-phenyl disulfide]: the pIC50 in test [1] (setting [6]) was 3.90; in test [4] (setting [9]) it was 2.70. Moreover, the IC90 in test [1] (setting [7]) and in test [4] (setting [10]) was more than 4 mM throughout. Also, the “Conclusion (effect on udder cleft wound)” value in test [2] was “No effect”. Also, the minimal effective concentration was 0.125 mM in test [3] (setting [8]) and more than 1 mM in test [5] (setting [11]).
For `CC(C)SSC(C)C` [Di-isopropyl disulfide], the pIC50 in test [1] (setting [6]) and in test [4] (setting [9]) was less than 2.40 throughout. Besides, the IC90 in test [1] (setting [7]) and in test [4] (setting [10]) was more than 4 mM throughout. Moreover, the “Conclusion (effect on udder cleft wound)” value in test [2] is on record as “No effect”. In addition, the minimal effective concentration in test [3] (setting [8]) and in test [5] (setting [11]) was more than 1 mM in each case.
For the compound `CCCCS[S+]([O-])CCCC` (stereo not drawn) [Di-n-butyl thiosulfinate, S-butyl butane-1-sulfinothioate], the “inflammation of the udder cleft wound after treatment” value in test [2] (immediately after the treatment, later infection reduced and wound healed) is on record as “fast inflammation reduction”. Further, the “Conclusion (effect on udder cleft wound)” value in test [2] is given as “Positive effect”.
Consider `COc1ccc(SSc2ccc(OC)cc2)cc1` [Bis (4-methoxyphenyl) disulfide, Bis(4-methoxyphenyl) disulfide], for which the pIC50 in test [1] (setting [6]) and in test [4] (setting [9]) was less than 2.40 in each case. The IC90 in test [1] (setting [7]) and in test [4] (setting [10]) was more than 4 mM throughout. In test [2], the “Conclusion (effect on udder cleft wound)” value is “No effect”. The minimal effective concentration in test [3] (setting [8]) and in test [5] (setting [11]) was more than 1 mM throughout.
Consider `CCS[S+]([O-])CC` (stereo not drawn) [Di-ethyl thiosulfinate, S-ethyl ethanesulfinothioate], for which, in test [2], the “Conclusion (effect on udder cleft wound)” value is given as “No effect”.
With `Fc1ccc(SSc2ccc(F)cc2)cc1` [Bis (4-fluorophenyl) disulfide], the results for the pIC50 in test [1] (setting [6]) and in test [4] (setting [9]) were 4.22 and 3.90, respectively. The values for the IC90 in test [1] (setting [7]) and in test [4] (setting [10]) were 0.06 mM and 0.25 mM, respectively. For the same compound, in test [2], the “Conclusion (effect on udder cleft wound)” value is given as “No effect”. Moreover, the minimal effective concentration in test [3] (setting [8]) and in test [5] (setting [11]) was more than 1 mM throughout.
In the case of `CCCCCCCCCCS[S+]([O-])CCCCCCCCCC` (stereo not drawn) [S-decyl-1-decane thiosulfinate], the “S. epidermidis MIC50” value in test [1] (setting [6]) was more than 4000 µM. The “S. epidermidis MIC90” value in test [1] (setting [7]) is more than 4000 µM. Further, the “P. aeruginosa MBEC mM with log reduction ≥1” value in test [3] (setting [11]) is reported as more than 1 mM. Moreover, in test [4] (setting [6]), the “P. aeruginosa MIC50” value was more than 4000 µM. Further, in test [4] (setting [7]), the “P. aeruginosa MIC90” value was more than 4000 µM. For the same compound, in test [5] (setting [11]), the “S. epidermidis MBEC mM with log reduction ≥1” value was more than 1 mM.
As for “Bis(4-chlorophenyl) thiosulfinate [Bis (4-chlorophenyl) thiosulfinate]”, the “S. epidermidis MIC50” value in test [1] (setting [6]) was determined as 20 µM. Moreover, the “S. epidermidis MIC90” value in test [1] (setting [7]) is 20 µM. Further, the “P. aeruginosa MBEC mM with log reduction ≥1” value in test [3] (setting [11]) was more than 1 mM. In addition, in test [4] (setting [6]), the “P. aeruginosa MIC50” value is 20 µM. Besides, the “P. aeruginosa MIC90” value in test [4] (setting [7]) is 20 µM. In test [5] (setting [11]), the “S. epidermidis MBEC mM with log reduction ≥1” value is given as more than 1 mM.
With `CCCSSC` [Methyl propyl disulfide], the pIC50 in test [1] (setting [6]) and in test [4] (setting [9]) was less than 2.40 in each case. Besides, the IC90 in test [1] (setting [7]) and in test [4] (setting [10]) was more than 4 mM throughout. Further, the minimal effective concentration in test [3] (setting [8]) and in test [5] (setting [11]) was more than 1 mM throughout.
